According to patent US9572788B2, “Cell permeable inhibitors of anaphase promoting complex” (President and Fellows of Harvard College, priority 2014, dated 2017):

Key:
HeLa H2B-GFP cells = experiment: Mitotic entry monitored by time-lapse imaging; type: cell-based, human; settings: for Average time of mitotic entry / Median time of mitotic entry: Fig 4E
HeLa H2B-RFP cells = experiment: Exogenous cyclin-GFP expression, live-cell imaging and quantitation; type: cell-based, human; settings: Fig 5D; GFP at 60 min vs onset of mitosis; 20 μM proTAME or proAAME, 150 nM nocodazole
Method: HeLa H2B-RFP cells were transduced with cyclin B1-GFP or cyclin A2-GFP adenovirus for 40 h. Phenol Red-Free DMEM (Mediatech) supplemented with 10% FBS and 1:100 Penicillin-Streptomycin-Glutamine (Mediatech) was used as imaging medium. 20 μM proAAME, 20 μM proTAME or 150 nM nocodazole was added 45 min prior to the start of imaging. Live cell imaging was set up as described above except that the cells were plated in an 8-well chambered coverglasses (NUNC Lab-tek 155411). Four positions per treatment group were imaged with DIC transmitted light, red fluorescence, and green fluorescence (Semrock GFP/HcRed “Pinkel” filter set) at 12 min intervals for 24 h. Stacks of red and green fluorescence were merged, saved as AVI video files and analyzed using ImageJ. For quantitation, the first GFP-positive cells that undergo mitosis in three separate movies were chosen, giving at least 30 cells quantitated for each treatment group. Mean intensity values for the green channel were collected for a cytoplasmic region of a cell upon mitotic entry, mitotic exit, or after 1 h of mitotic arrest. At the same time points, background mean green intensity was determined and individually subtracted from the cytoplasmic mean intensity. This background corrected mean intensity value was then used to determine the percentage of the original GFP signal remaining at the completion of division (for the control cells) or after 1 h of mitotic arrest (for the nocodazole and proTAME treated cells). The average values for all quantitated cells were plotted with the error bars representing standard error of the mean.

HeLa cells [1] = experiment: Immunofluorescence of mitotic spindle and interkinetochore distance; type: cell-based, human; parameters: Median inter-kinetochore distance / Average inter-kinetochore distance: unit not given here; settings: for Effect on mitotic spindle: asynchronous HeLa, 2 h, 12 μM proTAME, nocodazole or taxol
Method: HeLa cells grown in DMEM+10% FBS were plated on 25 mm glass coverslips in a E-well dish at a density of 130,000/ml×3 ml 48 h prior to treatment. They were then treated with 0.06% DMSO, 12 μM proTAME, 300 nM nocodazole or 300 nM taxol for 2 h. The cells were washed twice with PBS and fixed with 3% paraformaldehyde for 15 min. The cells were then washed with PBS and permeabilized with PBS plus 0.5% Triton X-100 for 2 min. The cells were then washed with PBS and blocked with PBS plus 5% FBS for 1 h. CREST antisera diluted 1:50 into PBS was added to the cells and incubated at room temperature for 1 h. The cells were washed with PBS and incubated with 1:1000 anti-human-Alexa 568 (Invitrogen, A21090) and 1:100 anti-α-tubulin-FITC for 1 h. The cells were then washed with PBS and the nuclei were stained with 1 μg/ml Hoechst 33342. The cover slips were mounted in 0.1M N-propylgallate in 9:1 glycerol:PBS. Z-series images were taken on a Nikon TE2000 microscope with PerkinElmer spinning disk confocal device. Maximal Z-projection images of individual cells were made by Image J. To measure interkinetochore distances, a straight line was drawn across a kinetochore pair in the same confocal plane and pixel intensities along the line were plotted so that each kinetochore would be represented by a peak on the line. The interkinetochore distance was calculated as the distance between the peaks. Fifty-five kinetochore pairs from 5 cells treated with DMSO or proTAME were measured and the p-value was calculated with a paired student test.

APC = biological target: T1, APC (Homo sapiens, UniProt P30260); experiment: Cdc20/Cdh1 binding assay in HeLa cells (APC immunoprecipitation); type: cell-based
T1 construct: endogenous in cells; host or cells: HeLa cells (synchronised; some with Mad2/BubR1 siRNA and cyclin B1-delta107 adenovirus)
T1 sequence (P30260 whole entry): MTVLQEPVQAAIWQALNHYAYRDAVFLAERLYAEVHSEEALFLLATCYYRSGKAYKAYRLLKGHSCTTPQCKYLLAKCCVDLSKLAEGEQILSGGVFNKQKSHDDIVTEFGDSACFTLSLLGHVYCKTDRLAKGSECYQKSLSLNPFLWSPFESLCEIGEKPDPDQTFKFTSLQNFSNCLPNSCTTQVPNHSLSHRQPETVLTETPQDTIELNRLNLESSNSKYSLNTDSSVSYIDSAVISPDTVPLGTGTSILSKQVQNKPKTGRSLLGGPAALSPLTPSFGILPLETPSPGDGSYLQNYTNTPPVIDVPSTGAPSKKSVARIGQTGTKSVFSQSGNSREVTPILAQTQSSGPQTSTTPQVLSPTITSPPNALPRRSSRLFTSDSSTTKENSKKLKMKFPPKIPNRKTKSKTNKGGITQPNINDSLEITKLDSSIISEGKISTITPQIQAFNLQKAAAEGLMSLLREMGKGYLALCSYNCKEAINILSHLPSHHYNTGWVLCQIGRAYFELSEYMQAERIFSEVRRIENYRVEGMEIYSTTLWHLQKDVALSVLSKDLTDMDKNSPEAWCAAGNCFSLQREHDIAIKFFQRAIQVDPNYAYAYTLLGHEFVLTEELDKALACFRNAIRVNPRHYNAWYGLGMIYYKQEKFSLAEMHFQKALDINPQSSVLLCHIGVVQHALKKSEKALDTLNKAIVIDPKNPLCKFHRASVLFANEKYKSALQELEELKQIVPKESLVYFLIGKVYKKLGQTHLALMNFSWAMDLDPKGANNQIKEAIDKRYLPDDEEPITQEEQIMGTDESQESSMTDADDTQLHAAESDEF
Method: HeLa cells in DMEM 10% FBS were plated in T25 flasks at 20% confluence one day prior to the experiment. They were then synchronized by a double thymidine block (18 h for the first block, 8 h release and another 18 h for the second block, thymidine concentration: 2 mM). For analysis of Cdh1 binding, cells were released into […] from the second thymidine block for 13 h and then washed into fresh medium. Six h later, cells were treated with 12 μM proTAME or proAAME or 0.06% DMSO for 2 h and then collected by trypin digestion. For analysis of Cdc20 binding, cells were transfected with indicated siRNAs during the first release from thymidine block after two washes with DPBS (CellGro 21-030-CV) and addition of 6.3 ml OptiMEM. A volume (79 μl) of 20 μl Control siRNA#3 or a 1:1 mix of 20 μl MAD2 siRNA and BubR1 siRNA (Dharmacon D-004101-01, 5′-[…]-3′ (SEQ ID NO: 11)) was mixed in 1381 μl OptiMEM in a tube, 23.7 μl OligoFectamine were mixed with 94.1 μl OptiMEM in a second tube. After 5 min incubation at RT, the tubes contents were mixed and siRNA-reagent complexes were allowed to form for 20 min at RT. The transfection mixes were added to cells in OptiMEM and FBS was added to 10% after 5 h transfection. Cyclin B1-Δ107 expressing adenovirus (1:100) was added at the start of the second thymidine block and kept in the medium for all subsequent steps. Cells were treated at 10 h after release with 100 nM okadaic acid, 25 μg/ml cycloheximide and 12 μM proTAME as indicated. After 2 h treatment, cells were collected by mitotic shake-off. Cell pellets were washed twice with DPBS and flash-frozen with liquid nitrogen and stored at −80° C. until use. Cell lysis and APC immunoprecipitation were performed as described above.

[2] = Effect on mitosis in MCF10a cells; type: cell-based; settings: similar doses
HeLa cells [3] = experiment: Endogenous APC substrate levels by immunoblot in synchronized HeLa cells; type: cell-based, human; settings: 12 μM
Method: FIG. 1E is a series of photographs of gel electrophoresis analysis showing that proTAME stabilizes endogenous APC substrates. HeLa cells were synchronized by double thymidine procedure and released into compounds (12 μM). Protein levels were measured by immunoblot.

[4] = 12 μM proTAME added at 0 hr after release from thymidine block
[5] = 12 μM proTAME added at 2 hrs after release
[6] = 12 μM proTAME added at 4 hrs after release
[7] = 12 μM proTAME added at 6 hrs after release
[8] = 12 μM proTAME added at 8 hrs after release

**Q.** What does the source list for `COC(=O)[C@H](CCCN/C(=N\C(=O)OCOC(=O)Cc1ccccc1)NC(=O)OCOC(=O)Cc1ccccc1)NS(=O)(=O)c1ccc(C)cc1` [proTAME]?
**A.** Average time of mitotic entry (HeLa H2B-GFP cells; [4]): 712.8 min; Median time of mitotic entry (HeLa H2B-GFP cells; [4]): 696 min; Average time of mitotic entry (HeLa H2B-GFP cells; [5]): 669.0 min; Median time of mitotic entry (HeLa H2B-GFP cells; [5]): 660 min; Average time of mitotic entry (HeLa H2B-GFP cells; [6]): 636.6 min; Median time of mitotic entry (HeLa H2B-GFP cells; [6]): 624 min; Average time of mitotic entry (HeLa H2B-GFP cells; [7]): 619.4 min; Median time of mitotic entry (HeLa H2B-GFP cells; [7]): 612 min; Average time of mitotic entry (HeLa H2B-GFP cells; [8]): 622.6 min; Median time of mitotic entry (HeLa H2B-GFP cells; [8]): 612 min; Delay in mitotic entry (HeLa H2B-GFP cells; added 6 hour or later after release): did not delay mitotic entry; Delay in mitotic entry (HeLa H2B-GFP cells; added during release from a double thymidine block): 2 h; Average cyclin A2-GFP (fraction remaining) (HeLa H2B-RFP cells): 0.99 fraction remaining; Average cyclin B1-GFP (fraction remaining) (HeLa H2B-RFP cells): 1.17 fraction remaining; Median cyclin A2-GFP (fraction remaining) (HeLa H2B-RFP cells): 0.95 fraction remaining; Median cyclin B1-GFP (fraction remaining) (HeLa H2B-RFP cells): 1.17 fraction remaining; Average inter-kinetochore distance (HeLa cells [1]; Fig 5E, 12 μM proTAME for 2 h): 1.26; Median inter-kinetochore distance (HeLa cells [1]; Fig 5E, 12 μM proTAME for 2 h): 1.28; Effect on mitotic spindle (HeLa cells [1]): no measurable differences in mitotic spindle morphology or inter-kinetochore distance; Dissociation of Cdc20 from the APC (APC; HeLa arrested by nondegradable cyclin B, 12 μM): induced significant dissociation of Cdc20 from the APC, but only if SAC proteins were depleted by RNAi; Cdh1 association with the APC (APC; HeLa cells in G1, 12 μM): inhibited Cdh1 association with the APC; Reduction in Cdc20 binding to the APC (APC; HeLa, 12 μM plus 10 μM MG132 for 2 hours): 30%; Effect on mitotic duration [2]: had no effect; Stabilization of endogenous cyclin B and securin (HeLa cells [3]): dramatically stabilized

**Q.** What does the source list for `COC(=O)Nc1nc2ccc(C(=O)c3cccs3)cc2[nH]1` [Nocodazole, reference compound]?
**A.** Average cyclin A2-GFP (fraction remaining) (HeLa H2B-RFP cells): 0.28 fraction remaining; Average cyclin B1-GFP (fraction remaining) (HeLa H2B-RFP cells): 0.87 fraction remaining; Median cyclin A2-GFP (fraction remaining) (HeLa H2B-RFP cells): 0.28 fraction remaining; Median cyclin B1-GFP (fraction remaining) (HeLa H2B-RFP cells): 0.83 fraction remaining; Effect on mitotic spindle (HeLa cells [1]): strongly perturbed spindle organization
